Here are results for eleven compounds from US7612075B2, “Substituted oxoazaheterocyclyl compounds” (Aventis Pharmaceuticals Inc., priority 1998, dated 2009).

Counter-ions that a name gives are not always drawn. No end group written: not given here.

System in one data set: not given
Details: not given
With `N=C(N)c1ccc(CN2CCN(Cc3nc4ccc(Cl)cc4[nH]3)CC2=O)cc1` (as salt: salt) [Example 122, 4-[4-(6-Chloro-1H-benzoimidazol-2-ylmethyl)-2-oxo-piperazin-1-ylmethyl]-benzamidine], the melting point was 91 to 95 °C.

In turn, `C[C@H]1CN(Cc2ccc3c(N)ncnc3c2)C(=O)[C@H](C)N1C(=O)C=Cc1ccc(Cl)s1` (as salt: salt) [Example 669, (3S, 5S)-1-(4-Amino-quinazolin-7-ylmethyl)-4-[3-(5-chloro-thiophen-2-yl)-acryloyl]-3,5-dimethyl-piperazin-2-one] yielded a melting point of 116 to 120 °C.

`N=C(N)c1ccc(CN2CCC(Cc3nc4ccc(Cl)cc4[nH]3)CC2=O)cc1` (stereo not drawn) (as salt: salt) [Example 815, 4-[4-(6-Chloro-1H-benzoimidazol-2-ylmethyl)-2-oxo-piperidin-1-ylmethyl]-benzamidine] displayed a melting point of 105 to 110 °C.

For the compound `C[C@@H]1CN(Cc2ccc3c(N)ncnc3c2)C(=O)[C@H](C)N1CC=Cc1ccc(Cl)s1` (as salt: trifluoroacetic acid salt) [Example 665, (3S,5R)-1-(4-Amino-quinazolin-7-ylmethyl)-4-[3-(5-chloro-thiophen-2-yl)-allyl]-3,5-dimethyl-piperazin-2-one], the melting point lay in the range of 67 to 70 °C.

In turn, `C[C@H]1CN(Cc2ccc3c(N)ncnc3c2)C(=O)[C@H](C)N1S(=O)(=O)C=Cc1ccc(Cl)s1` [Example 667, (3S, 5S)-1-(4-Amino-quinazolin-7-ylmethyl)-4-[2-(5-chloro-thiophen-2-yl)-ethenesulfonyl]-3,5-dimethyl-piperazin-2-one] yielded a melting point of 218 to 221 °C.

In turn, `C[C@H]1CN(Cc2ccc3c(N)ncnc3c2)C(=O)[C@H](C)N1S(=O)(=O)c1cc2ccc(Cl)cc2s1` [Example 668, (3S, 5S)-1-(4-Amino-quinazolin-7-ylmethyl)-4-(6-chloro-benzo[b]thiophen-2-sulfonyl)-3,5-dimethyl-piperazin-2-one] came in with a melting point of 224 to 226 °C.

`Nc1ncnc2cc(CN3CCC(Cc4nc5ccc(Cl)cc5[nH]4)CC3=O)ccc12` (stereo not drawn) [Example 816, 1-(4-Amino-quinazolin-7-ylmethyl)-4-(6-chloro-1H-benzoimidazol-2-ylmethyl)-piperidin-2-one] returned a melting point of 128 to 132 °C.

`Nc1n[nH]c2cc(CN3CCN(Cc4cc5ccc(Cl)cc5s4)CC3=O)ccc12` [Example 874, 1-(3-Amino-1H-indazol-6-ylmethyl)-4-(6-chloro-benzo[b]thiophen-2-ylmethyl)-piperazin-2-one]: the melting point is 246 to 248 °C.

`Nc1n[nH]c2cc(CN3CCN(S(=O)(=O)c4cc5ccc(Cl)cc5s4)CC3=O)ccc12` [Example 876, 1-(3-Amino-1H-indazol-6-ylmethyl)-4-(6-chloro-benzo[b]thiophene-2-sulfonyl)-piperazin-2-one] showed a melting point of 274 to 276 °C.

A further data set deals with human cultured vascular smooth muscle cells. The conditions noted are these: cited from earlier work.
Take “TAP: named only as TAP; cited (F Bono, et al.) where the mitogenic effect of Factor Xa is said to depend on its enzymatic activity (YNRLCIKPRDWIDECDSNEGGERAYFRNGKGGCDSFWICPEDHTGADYYSSYRDCFNACI; ends and bridges not checked; cysteine pairing not given here; UniProt P17726 1-60, looked up)”: the “mitogenesis of human cultured vascular smooth muscle cells” value was “inhibited”.

Another data set relates to rat cultured vascular smooth muscle cells. The conditions noted are these: cited from earlier work.
On to “TAP: named only as TAP; cited (F Bono, et al.) where the mitogenic effect of Factor Xa is said to depend on its enzymatic activity (YNRLCIKPRDWIDECDSNEGGERAYFRNGKGGCDSFWICPEDHTGADYYSSYRDCFNACI; ends and bridges not checked; cysteine pairing not given here; UniProt P17726 1-60, looked up)”, for which the “mitogenesis of rat cultured vascular smooth muscle cells” value is on record as “inhibited”.

In another data set the test system is rabbit carotid artery. The conditions noted are these: rabbit carotid artery air-drying injury model, after vascular injury; cited from earlier work.
Take `CC(=N)N1CC[C@H](Oc2ccc([C@H](Cc3ccc4ccc(C(=N)N)cc4c3)C(=O)O)cc2)C1` [DX-9065a]: the neointimal proliferation result is “less neointimal proliferation”.
